In US8961930B2, “Isatin derivatives for use as in vivo imaging agents” (Imperial Innovations Limited, priority 2008, dated 2015):

Experiments:
[1] = Log P determination, octanol-water partition coefficient; type: physicochemical; conditions: read-out: Measured Log P
Experimental: Lipophilicity was assessed by measuring the octanol-water partition coefficient using the method of Barthel et al^18. Briefly, [^18F]11 (˜180 μCi in 25 μL ethanol) was diluted to a final volume of 100 μL using water to give the stock solution. Aliquots of stock solution (10 μL) were added to water (490 μL) and octan-1-ol (Aldrich anhydrous grade) (500 μL). The solutions were then shaken vigorously for 10 min then centrifuged (13201 g, 20° C., 30 min) Following centrifugation portions (200 μL) of the water and octanol layers were carefully removed and placed analyzed on a Cobra II Auto-Gamma counter (Packard Instruments, Meriden, Conn., USA) and compared. The octanol-water partition coefficient was obtained by dividing the octanol containing radioactivity by the water containing radioactivity. Log P was determined to be 1.61, as indicated in footnote c of Table 1 above.

[2] = tested on: 38C13 murine lymphoma xenograft; test: Biodistribution of [^18F]11 in 38C13 xenograft-bearing mice after PET scan; type: in vivo, C3H/hej mice; parameters: Biodistribution, Lung: unit not given here
Experimental: The in vivo experimental model of tumour apoptosis was established by subcutaneous injection of 38C13 murine lymphoma cells (5000 cells) on the back of 6-8 weeks old male C3H/hej mice (Harlan, Bicester, Oxfordshire, UK). When xenografts reached ˜100 mm3, the mice were treated with cyclophosphamide (CPA, 100 mg/kg) or vehicle for 24 h and then scanned on a dedicated small animal PET scanner (Siemens Inveon PET module). Anesthetized animals were placed within a thermostatically controlled bed and positioned prone within the scanner. A bolus injection of [^18F]11 (˜100 μCi) was given intravenously (i.v.) via the tail vein cannula and scanning commenced.
Dynamic emission scans were acquired in list-mode format over 60 minutes. The acquired data were then sorted into 0.5-mm sinogram bins and 19 time frames for image reconstruction, which was done by filtered back projection. The image data-sets obtained were visualized using the Siemens Inveon Research Workplace software. Cumulative images of the dynamic data were used for visualization of radiotracer uptake and to define the regions of interest (ROI). The count densities were averaged for each ROI at each of the 19 time points to obtain a time versus radioactivity curve (TAC) for the ROIs (see FIG. 15).
Tumour TAC was normalized to that of whole body at each of the time points to obtain the normalized uptake value (NUV).
After the scan, the different tissues were removed, weighted and placed in tubes for immediate Fluorine-18 radioactivity counting to assess the [^18F]11 biodistribution (See Table 4, below).

RIF-1 cells = test: In vitro [^18F]11 uptake in RIF-1 cells; type: cell-based, murine
From the text: The human ovarian carcinoma cell lines PEO1/4 were established and characterised as described in Wolf C. R. et al.^22 and Langdon S. P. et al^23. Briefly, PEO1/4 cells were derived from the malignant ascites of a patient with a recurrent mucinous ovarian adenocarcinoma, before (PEO1) and after (PEO4) the onset of a clinical resistance to cisplatin chemotherapy in this patient. The radiation-induced murine fibrosarcoma (RIF-1) tumour cell line was originally characterised by Twentyman P. R. et al.^20. The LNM35 tumour cells are a highly lymphogenous metastatic subline of the human large pulmonary carcinoma NCI-H460 cell line, as described in Kozaki K. et al.^24. […]
Cells were plated in triplicate in 12-well plates 2 or 3 days prior to the experiments and treated with the antineoplastic platinum-derived drug Cisplatin, 5-FU, the protein synthesis inhibitor cycloheximide (CHX) or the topoisomerase inhibitor etoposide (VP-16) (Sigma, UK) or corresponding vehicle at the indicated concentration and time. […] 260 μL of each sample were transferred in counting tubes and Fluorine-18 radioactivity was immediately determined using a Packard Cobra II gamma counter (Perkin Elmer, UK). […] BCA Protein assay (Pierce, UK) was performed for all samples and datas are normalized and expressed as CCPMA or RLU (Relative Light Unit)/mg of protein. […]

## O=C1C(=O)N(Cc2cn(CC[18F])nn2)c2ccc(S(=O)(=O)N3CCC[C@H]3COc3ccc(F)cc3F)cc21 [[^18F]11, (S)-1-((1-(2-Fluoroethyl)-1H-[1,2,3]-triazol-4-yl)methyl)-5-(2(2,4-difluorophenoxymethyl)-pyrrolidine-1-sulfonyl)isatin]
[1]
  logP at 10 min: 1.61
[2]; 38C13 xenograft, CPA 100 mg/kg 24 h
  increase in uptake in tumours of CPA-treated mice compared to the vehicle: 2 fold
[2]; CPA
  Biodistribution, Blood: 1.00 ± 0.00 % ID Tumour/blood ratio
  Biodistribution, Bone: 0.93 ± 0.07 % ID Tumour/blood ratio
  Biodistribution, Brain: 0.23 ± 0.03 % ID Tumour/blood ratio
  Biodistribution, Feces: 8.46 ± 0.91 % ID Tumour/blood ratio
  Biodistribution, Heart: 1.43 ± 0.16 % ID Tumour/blood ratio
  Biodistribution, Kidney: 7.23 ± 0.47 % ID Tumour/blood ratio
  Biodistribution, L. Intestine: 2.78 ± 0.64 % ID Tumour/blood ratio
  Biodistribution, Liver: 14.17 ± 1.55 % ID Tumour/blood ratio
  Biodistribution, Lung: 5.49 ± 0.66
  Biodistribution, Muscle: 1.20 ± 0.07 % ID Tumour/blood ratio
  Biodistribution, S. Intestine: 83.12 ± 70.19 % ID Tumour/blood ratio
  Biodistribution, Spleen: 1.81 ± 0.37 % ID Tumour/blood ratio
  Biodistribution, Stomach: 1.62 ± 0.19 % ID Tumour/blood ratio
  Biodistribution, Tumour: 1.24 ± 0.11 % ID Tumour/blood ratio
  Biodistribution, Urine: 43.64 ± 12.24 % ID Tumour/blood ratio
[2]; Vehicle
  Biodistribution, Blood: 1.00 ± 0.00 % ID Tumour/blood ratio
  Biodistribution, Bone: 0.87 ± 0.10 % ID Tumour/blood ratio
  Biodistribution, Brain: 0.24 ± 0.02 % ID Tumour/blood ratio
  Biodistribution, Feces: 13.28 ± 2.37 % ID Tumour/blood ratio
  Biodistribution, Heart: 1.31 ± 0.10 % ID Tumour/blood ratio
  Biodistribution, Kidney: 7.21 ± 0.33 % ID Tumour/blood ratio
  Biodistribution, L. Intestine: 6.07 ± 0.62 % ID Tumour/blood ratio
  Biodistribution, Liver: 10.60 ± 0.75 % ID Tumour/blood ratio
  Biodistribution, Lung: 4.27 ± 0.13
  Biodistribution, Muscle: 1.22 ± 0.07 % ID Tumour/blood ratio
  Biodistribution, S. Intestine: 291.61 ± 28.68 % ID Tumour/blood ratio
  Biodistribution, Spleen: 2.30 ± 0.38 % ID Tumour/blood ratio
  Biodistribution, Stomach: 1.95 ± 0.00 % ID Tumour/blood ratio
  Biodistribution, Tumour: 0.83 ± 0.10 % ID Tumour/blood ratio
  Biodistribution, Urine: 116.71 ± 19.47 % ID Tumour/blood ratio
[2]; CPA 100 mg/kg 24 h, 38C13 xenograft
  Biodistribution, Plasma: 1.90 ± 0.09 % ID Tumour/blood ratio
[2]; Vehicle, 38C13 xenograft
  Biodistribution, Plasma: 1.98 ± 0.23 % ID Tumour/blood ratio
RIF-1 cells; CDDP 100 μM 48 h vs vehicle, 1 h incubation
  increase in uptake in apoptotic cells: ~1.5 fold
RIF-1 cells; CDDP or CHX 10 μg/mL 24 h, 60 min uptake
  [^18F]11 uptake in drug-treated cells compared to control: significantly increased
